In BindingDB's records for doi:10.1016/j.bmcl.2005.02.084 (Bristol-Myers Squibb Pharmaceutical Research Institute, 2005):
pIC50: −log10 of the molar value.

Test: Inhibitory concentration in CCR4-transfected murine pre-B L1.2 cells (chemotaxis assay)

pIC50: 5.30
SMILES: CCN(CC)CCCC(C)Nc1nccc(NCc2ccc(Cl)cc2Cl)n1 (stereo unspecified) [N*4*-(2,4-Dichloro-benzyl)-N*2*-(4-diethylamino-1-methyl-butyl)-pyrimidine-2,4-diamine]
